Measured values as given in ChEMBL document CHEMBL1142815, “Influence of acid surrogates toward potency of VLA-4 antagonist” (Bioorg Med Chem Lett, 2005).

How the values were obtained:
Integrin alpha-4/beta-1 [1] = molecular target: T1, Integrin alpha-4/beta-1 (Homo sapiens, UniProt P05556+P13612); experiment: Inhibition of VLA-4 receptor of Jurkat cells in BURJ assay; assay type: cell-based
[2] = Oral bioavailability in rat upon oral administration of 5 mg/kg; settings: in vivo
[3] = Volume of distribution of compound in rat plasma upon intravenous administration of 5 mg/kg; assay type: ADME, organism-based; set-up: dose 5 mg/kg, route intravenous
[4] = Maximum concentration in rat plasma upon peroral administration of 5 mg/kg; assay type: ADME, organism-based; set-up: dose 5 mg/kg, route oral; settings: po
Integrin alpha-4/beta-1 [5] = molecular target: T1, Integrin alpha-4/beta-1; experiment: Percentage binding to VLA-4 receptor of Jurkat cells; assay type: cell-based
[6] = Plasma clearance in rat upon intravenous administration of 5 mg/kg; assay type: ADME, organism-based; set-up: dose 5 mg/kg, route intravenous
[7] = Area under plasma concentration curve in rat upon intravenous administration of 5 mg/kg; assay type: ADME, organism-based; set-up: dose 5 mg/kg, route intravenous
[8] = Half-life in rat upon intravenous administration of 5 mg/kg; assay type: ADME, organism-based; set-up: dose 5 mg/kg, route intravenous; settings: in vivo

T1 sequence (P05556 whole entry): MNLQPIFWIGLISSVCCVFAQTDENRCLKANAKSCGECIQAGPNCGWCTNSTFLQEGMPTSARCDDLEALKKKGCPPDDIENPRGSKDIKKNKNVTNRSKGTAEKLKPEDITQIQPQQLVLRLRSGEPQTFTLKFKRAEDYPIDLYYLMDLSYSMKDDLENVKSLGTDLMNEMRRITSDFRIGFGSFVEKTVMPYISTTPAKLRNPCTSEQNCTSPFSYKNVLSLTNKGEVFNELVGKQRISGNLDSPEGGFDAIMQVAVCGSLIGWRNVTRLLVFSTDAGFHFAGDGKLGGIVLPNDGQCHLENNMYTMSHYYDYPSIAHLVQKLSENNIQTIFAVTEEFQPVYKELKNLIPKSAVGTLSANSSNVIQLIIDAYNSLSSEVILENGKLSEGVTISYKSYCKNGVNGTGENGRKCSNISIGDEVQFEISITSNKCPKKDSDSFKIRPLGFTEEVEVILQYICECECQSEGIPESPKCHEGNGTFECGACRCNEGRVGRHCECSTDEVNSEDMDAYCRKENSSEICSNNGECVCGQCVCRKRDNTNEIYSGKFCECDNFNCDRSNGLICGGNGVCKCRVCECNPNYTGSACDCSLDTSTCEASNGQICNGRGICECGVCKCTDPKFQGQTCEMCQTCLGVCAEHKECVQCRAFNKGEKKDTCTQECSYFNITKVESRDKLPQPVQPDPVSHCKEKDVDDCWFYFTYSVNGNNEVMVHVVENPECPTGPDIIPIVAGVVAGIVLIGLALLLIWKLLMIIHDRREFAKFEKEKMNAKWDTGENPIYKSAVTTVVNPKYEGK
T1 sequence (P13612 whole entry): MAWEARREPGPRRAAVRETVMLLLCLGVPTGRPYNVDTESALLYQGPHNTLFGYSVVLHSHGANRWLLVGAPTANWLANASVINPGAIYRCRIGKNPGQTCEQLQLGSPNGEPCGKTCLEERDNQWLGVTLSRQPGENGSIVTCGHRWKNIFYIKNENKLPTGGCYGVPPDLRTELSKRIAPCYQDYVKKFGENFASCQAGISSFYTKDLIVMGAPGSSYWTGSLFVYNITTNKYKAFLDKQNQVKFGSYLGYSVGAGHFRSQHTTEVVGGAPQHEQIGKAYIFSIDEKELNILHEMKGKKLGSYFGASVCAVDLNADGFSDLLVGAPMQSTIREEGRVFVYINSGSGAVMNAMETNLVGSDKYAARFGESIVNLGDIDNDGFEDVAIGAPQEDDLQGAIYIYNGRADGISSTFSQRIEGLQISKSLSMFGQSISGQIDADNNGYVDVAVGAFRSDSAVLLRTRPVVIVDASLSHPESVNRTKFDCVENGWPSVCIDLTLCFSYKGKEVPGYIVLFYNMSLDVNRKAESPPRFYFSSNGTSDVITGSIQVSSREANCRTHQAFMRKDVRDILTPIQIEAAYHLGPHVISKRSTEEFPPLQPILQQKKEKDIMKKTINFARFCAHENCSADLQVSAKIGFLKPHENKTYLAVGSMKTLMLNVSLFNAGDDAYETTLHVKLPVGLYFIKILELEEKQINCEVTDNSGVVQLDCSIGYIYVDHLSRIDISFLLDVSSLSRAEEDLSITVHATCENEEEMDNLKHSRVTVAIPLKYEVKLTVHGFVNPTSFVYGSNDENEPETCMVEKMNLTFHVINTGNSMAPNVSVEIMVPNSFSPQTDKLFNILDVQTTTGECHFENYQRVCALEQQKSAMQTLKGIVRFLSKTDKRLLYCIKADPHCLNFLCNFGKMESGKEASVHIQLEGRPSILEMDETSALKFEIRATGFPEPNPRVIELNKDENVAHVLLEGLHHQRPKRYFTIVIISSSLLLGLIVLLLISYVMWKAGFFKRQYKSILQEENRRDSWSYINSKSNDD

| SMILES | IC50 (Integrin alpha-4/beta-1 [1]) | bioavailability [2] | Vd [3] | Cmax [4] | Percent binding to VLA-4 (Integrin alpha-4/beta-1 [5]) | clearance [6] | AUC [7] | half-life [8] |
| --- | --- | --- | --- | --- | --- | --- | --- | --- |
| O=C(Nc1ccc(C[C@H](NC(=O)[C@@H]2CCCN2S(=O)(=O)c2cc(Cl)cc(Cl)c2)c2noc(O)n2)cc1)c1c(Cl)cncc1Cl | 12 nM | 0.19% | 2.61 L/kg | 6.1 nM | 0% | 60 mL/min/kg | 2.01 µM·h | 2.78 h |
| O=C(Nc1ccc(C[C@H](NC(=O)[C@@H]2CCCN2S(=O)(=O)c2cc(Cl)cc(Cl)c2)C(=O)O)cc1)c1c(Cl)cncc1Cl | 0.03 nM | – | 0.57 L/kg | 3.14 nM | 66% | 38.2 mL/min/kg | 0.68 µM·h | 0.72 h |
| O=C(Nc1ccc(C[C@H](NC(=O)[C@@H]2CCCN2S(=O)(=O)c2cc(Cl)cc(Cl)c2)c2cc(=O)[nH]o2)cc1)c1c(Cl)cncc1Cl | 20 nM | – | 1.25 L/kg | – | – | 37.6 mL/min/kg | 3.51 µM·h | 2.85 h |
| O=C(Nc1ccc(C[C@H](NC(=O)[C@@H]2CCCN2S(=O)(=O)c2cc(Cl)cc(Cl)c2)C(=O)NS(=O)(=O)C(F)(F)F)cc1)c1c(Cl)cncc1Cl | 11 nM | – | – | – | 0% | – | – | – |
| O=C(Nc1ccc(C[C@H](NC(=O)[C@@H]2CCCN2S(=O)(=O)c2cc(Cl)cc(Cl)c2)c2cc(O)[nH]n2)cc1)c1c(Cl)cncc1Cl | 300 nM | – | – | – | 6% | – | – | – |
| O=C(Nc1ccc(C[C@H](NC(=O)[C@@H]2CCCN2S(=O)(=O)c2cc(Cl)cc(Cl)c2)C(=O)NC(=O)C(F)(F)F)cc1)c1c(Cl)cncc1Cl | 10 nM | – | – | – | 0% | – | – | – |
| CCOC(=O)CC(=O)[C@H](Cc1ccc(NC(=O)c2c(Cl)cncc2Cl)cc1)NC(=O)[C@@H]1CCCN1S(=O)(=O)c1cc(Cl)cc(Cl)c1 | 13 nM | – | – | – | 10% | – | – | – |
| O=C(Nc1ccc(C[C@H](NC(=O)[C@@H]2CCCN2S(=O)(=O)c2cc(Cl)cc(Cl)c2)c2cc(O)no2)cc1)c1c(Cl)cncc1Cl | – | – | – | – | 8% | – | – | – |
| O=C(Nc1ccc(C[C@H](NC(=O)[C@@H]2CCCN2S(=O)(=O)c2cc(Cl)cc(Cl)c2)c2nnn[nH]2)cc1)c1c(Cl)cncc1Cl | 60 nM | – | – | – | 0% | – | – | – |
| COc1cccc(OC)c1-c1ccc(C[C@@H](Cn2oc(=O)[nH]c2=O)NC(=O)[C@@H]2CCCN2S(=O)(=O)c2cc(Cl)cc(Cl)c2)cc1 | 6000 nM | – | – | – | – | – | – | – |
